From patent US20190092792A1, “VINORELBINE MONOTARTRATE AND ITS PHARMACEUTICAL USE” (priority 2016, published 2019)
Like-named read-outs stand apart in the source and are kept apart here.

Columns and labels:
[1] = xenon lamp 300-800 nm
Protocol: The term “photostability”, as used herein, is to be understood such that a sample of the product to be analyzed in a quantity of about 14 mg is placed in a 10 ml light glass volumetric flask and is exposed in a photo chamber to a xenon lamp (wave length 300-800 nm; fluence rate 250-765 W/m2). The amount of the known photo-degradation product 3,6-epoxy vinorelbine is determined after a specific amount of time of exposure by means of HPLC (High-performance liquid chromatography). The described photostability test procedure corresponds to the photostability determining method described in European Pharmacopoeia 7.0 using exposure time 2 hours.
Furthermore, a comparative photo-degradation analysis of crystalline vinorelbine monotartrate hydrate, according to the present invention and vinorelbine bitartrate was performed.
The samples (about 14 mg each) were placed in 10 ml light glass volumetric flasks and exposed in a photo chamber to a xenon lamp (wave length 300-800 nm; fluence rate 250-765 W/m^2). The amount of the known photo-degradation product 3,6-epoxy vinorelbine was determined at various time points by means of HPLC.

[2] = Comparable stressing stability study at 60° C. (total degradation impurities by HPLC); format: physicochemical; details: for Total degradation impurities: 60° C.
Protocol: (§1) The degradation impurities are determined after a specific amount of time of incubation by means of HPLC.
(§2) The term “degradation impurities”, as used herein, is to be understood such a sample of the relevant product is subjected to HPLC analysis and calculation of the content of impurities in Vinorelbine is performed according to the method described in European Pharmacopoeia 7.0.
(§3) HPLC analysis and calculation of the content of impurities in Vinorelbine were performed according to the method described in European Pharmacopoeia 7.0.

[3] = Thermostability of vinorelbine monotartrate solid forms at 5° C., 25° C. and 40° C. (degradation impurities by HPLC); format: physicochemical; details: for Degradation products (%) 3,6-epoxy vinorelbine / Degradation products (%) Total / Degradation products (%) vinorelbine N-oxide: amorphous form, 40° C.
Protocol: as §1, §2
The term “degradation”, as used herein, is to be understood to relate to the total amount of identified (e.g. 3,6-epoxy vinorelbine, 4-O-deacetylvinorelbine and vinorelbine N-oxide) and unidentified degradation products that form in a sample after a particular incubation period.
as §3
Three further representative batches of crystalline vinorelbine monotartrate acetone solvate being produced according to Example 1 were analyzed for stability (i.e. batches no. 011213, no. 021213, and no. 010414). The samples were exposed to temperatures of 5° C. and 25° C. for three and six months, respectively. Batch no. 010414 was also exposed to a temperature of 40° C. (at 60%±2% relative humidity) for 15 days, 1 month, and two months, respectively.
Crystalline vinorelbine monotartrate hydrate being produced according to Example 5 were analyzed for stability. The samples were exposed to temperatures of 25° C. and 40° C. for three and six months, respectively.
In order to evaluate the thermostability and photostability of the compound the sample was exposed to a temperature of 40° C. for 2 weeks analyzed by HPLC.

CCC1=C[C@@H]2CN(C1)Cc1c([nH]c3ccccc13)[C@@](C(=O)OC)(c1cc3c(cc1OC)N(C)[C@H]1[C@@](O)(C(=O)OC)[C@H](OC(C)=O)[C@]4(CC)C=CCN5CC[C@]31[C@@H]54)C2.O=C(O)C(O)C(O)C(=O)O.O=C(O)C(O)C(O)C(=O)O [vinorelbine bitartrate, reference compound]
Photodegradation product (3,6-epoxy vinorelbine), % ([1]; exposure 0 min): 0.05% | Total impurities (excluding photodegradation product), % ([1]; exposure 0 min): 0.10% | Photodegradation product (3,6-epoxy vinorelbine), % ([1]; exposure 15 min): 0.16% | Total impurities (excluding photodegradation product), % ([1]; exposure 15 min): 0.10% | Photodegradation product (3,6-epoxy vinorelbine), % ([1]; exposure 30 min): 0.24% | Total impurities (excluding photodegradation product), % ([1]; exposure 30 min): 0.16% | Photodegradation product (3,6-epoxy vinorelbine), % ([1]; exposure 60 min): 0.35% | Total impurities (excluding photodegradation product), % ([1]; exposure 60 min): 0.20% | Photodegradation product (3,6-epoxy vinorelbine), % ([1]; exposure 120 min): 0.72% | Total impurities (excluding photodegradation product), % ([1]; exposure 120 min): 0.27% | Total degradation impurities ([2]; 1 week): 9.8%

vinorelbine monotartrate [amorphous vinorelbine monotartrate]
Degradation products (%) 3,6-epoxy vinorelbine ([3]; 15 days): 0.13% | Degradation products (%) Total ([3]; 15 days): 1.08% | Degradation products (%) vinorelbine N-oxide ([3]; 15 days): 0.33% | Degradation products (%) 3,6-epoxy vinorelbine ([3]; initial): LT 0.05% | Degradation products (%) Total ([3]; initial): 0.13% | Degradation products (%) vinorelbine N-oxide ([3]; initial): LT 0.05% | stability (in words) ([3]; exposure to elevated temperature and humidity for an extended period): unstable | degradation (in words) ([3]; incubation for two weeks at 40° C.): significant degradation

vinorelbine monotartrate acetone solvate
degradation (in words) ([3]; six months storage at 5° C.+3° C.): almost no degradation | degradation (in words) ([3]; six months storage at 25° C.±2° C.): almost no degradation | degradation (in words) ([3]; two months storage at 40° C.): only minimal degradation | Total degradation impurities ([2]; 1 week): LT 0.05% | Total degradation impurities ([2]; 3 weeks): 0.08% | Total degradation impurities ([2]; 8 weeks): 0.24% | chemical degradation (in words) ([2]; one week storage at 60° C.): didn't show any chemical degradation

vinorelbine monotartrate hydrate
overall accumulation of degradation impurities ([3]; after 6 months at 25° C.): ≤ 0.02% | overall accumulation of degradation impurities ([3]; after 6 months at 40° C.): ≤ 0.15% | Photodegradation product (3,6-epoxy vinorelbine), % ([1]; exposure 0 min): 0.03% | Total impurities (excluding photodegradation product), % ([1]; exposure 0 min): 0.10% | Photodegradation product (3,6-epoxy vinorelbine), % ([1]; exposure 15 min): 0.08% | Total impurities (excluding photodegradation product), % ([1]; exposure 15 min): 0.10% | Photodegradation product (3,6-epoxy vinorelbine), % ([1]; exposure 30 min): 0.14% | Total impurities (excluding photodegradation product), % ([1]; exposure 30 min): 0.10% | Photodegradation product (3,6-epoxy vinorelbine), % ([1]; exposure 60 min): 0.28% | Total impurities (excluding photodegradation product), % ([1]; exposure 60 min): 0.10% | Photodegradation product (3,6-epoxy vinorelbine), % ([1]; exposure 120 min): 0.44% | Total impurities (excluding photodegradation product), % ([1]; exposure 120 min): 0.17% | thermostability, degradation ([2]; one week storage at 60° C.): less than 0.10%
